Common to all, as to test: NCI human tumor cell panel
In one test the test system is A498. It counts as cell-based. To be noted: A498, read-out: Log10 LC50 (converted).
A further test relates to ACHN. It counts as cell-based. To be noted: read-out: Log10 LC50 (converted).
The subject of another test is BT-549. Format: cell-based. The conditions noted are these: BT-549, read-out: Log10 LC50 (converted).
The next test has as its system CCRF-CEM. Format: cell-based. To be noted: read-out: Log10 LC50 (converted).
In a further test the test system is DU-145. It counts as cell-based. To be noted: DU-145, read-out: Log10 LC50 (converted).
In the next test the test system is HCT-116. It counts as cell-based. To be noted: HCT-116, read-out: Log10 LC50 (converted).
The next test concerns HOP-62. It counts as cell-based. The conditions noted are these: HOP-62, read-out: Log10 LC50 (converted).
In the next test the test system is HOP-92. Format: cell-based. The conditions noted are these: HOP-92, read-out: Log10 LC50 (converted).
In a further test the test system is HS 578T. Format: cell-based. The conditions noted are these: read-out: Log10 LC50 (converted).
The test system of a further test is KM12. Format: cell-based. The conditions noted are these: KM12, read-out: Log10 LC50 (converted).
Another test deals with MDA-N. It counts as cell-based. To be noted: read-out: Log10 LC50 (converted).
In another test the test system is NCI-H322M. It counts as cell-based. To be noted: read-out: Log10 LC50 (converted).
For another test, the system named is NCI-H460. It counts as cell-based. The conditions noted are these: NCI-H460, read-out: Log10 LC50 (converted).
The test system of the next test is NCI-H522. It counts as cell-based. To be noted: NCI-H522, read-out: Log10 LC50 (converted).
In the next test the test system is PC-3. Format: cell-based. To be noted: PC-3, read-out: Log10 LC50 (converted).
The next test deals with SK-MEL-28. Format: cell-based. The conditions noted are these: SK-MEL-28, read-out: Log10 LC50 (converted).
The next test relates to SN12C. Format: cell-based. To be noted: read-out: Log10 LC50 (converted).
Another test concerns U251. Format: cell-based. The conditions noted are these: U-251, read-out: Log10 LC50 (converted).
A further test concerns UACC-62. It counts as cell-based. To be noted: UACC-62, read-out: Log10 LC50 (converted).
Another test deals with EKVX. The conditions noted are these: read-out: Log10 LC50 (converted).
For the next test, the system named is SNB-75. The conditions noted are these: for CC50: SNB-75, read-out: Log10 LC50 (converted).
For a further test, the system named is OVCAR-3. To be noted: OVCAR-3, read-out: Log10 LC50 (converted).

This note sets out measurements from patent EP1021178B1, “SELENOPHENE ANTI-TUMOR AGENTS” (Purdue Research Foundation, priority 1996, dated 1997).

Some results are limits rather than exact numbers.

`OCc1ccc(-c2ccc(-c3ccc[se]3)s2)[se]1`: the CC50 in the test on A498 was 0.302 µM; in the test on ACHN, greater than 100 µM; in the test with BT-549, 87.1 µM; in the test on CCRF-CEM, greater than 100 µM; with DU-145, greater than 100 µM; with HCT-116 it was greater than 100 µM. For the same compound, the CC50 is greater than 100 µM with HOP-62; greater than 100 µM with HOP-92; greater than 100 µM in the test on HS 578T; greater than 100 µM in the test with KM12; 55 µM with NCI-H522; greater than 100 µM in the test on PC-3. The CC50 with SK-MEL-28 is greater than 100 µM; in the test on SN12C, greater than 100 µM; with U251 it was 44.7 µM; in the test on UACC-62 it was greater than 100 µM; with EKVX, greater than 100 µM; with SNB-75 it was greater than 100 µM. Besides, in the test with OVCAR-3, the CC50 is 40.7 µM. Moreover, the LC50 (50% lethal concentration) with MDA-N was greater than 100 µM. Further, the LC50 (concentration killing 50% of cells) in the test with NCI-H322M and in the test on NCI-H460 was greater than 100 µM each time.

Turning to `OCc1ccc(-c2ccc(-c3ccc(CO)[se]3)[se]2)[se]1`, the CC50 is 7.24 µM with A498; greater than 100 µM with ACHN; greater than 100 µM with BT-549; greater than 100 µM in the test on CCRF-CEM; 46.8 µM with DU-145; greater than 100 µM in the test on HCT-116. The CC50 in the test on HOP-62 was 57.5 µM; in the test on HOP-92, 55 µM; in the test on HS 578T, 46.8 µM; with KM12, 50.1 µM; in the test with NCI-H522, 7.08 µM; with PC-3 it was 35.5 µM. Also, the CC50 is greater than 100 µM in the test on SK-MEL-28; greater than 100 µM in the test on SN12C; 50.1 µM in the test with U251; 44.7 µM in the test with UACC-62; greater than 100 µM with EKVX; greater than 100 µM in the test with SNB-75. Further, the CC50 in the test on OVCAR-3 was 5.37 µM. The LC50 (50% lethal concentration) in the test on MDA-N is 74.1 µM. In addition, the LC50 (concentration killing 50% of cells) with NCI-H322M was 52.5 µM; in the test with NCI-H460, 81.3 µM.

Take `OCc1ccc(-c2ccc(-c3cccs3)[se]2)s1`: the CC50 in the test on A498 is 0.0661 µM; in the test with ACHN it was greater than 100 µM; in the test on BT-549 it was greater than 100 µM; in the test with CCRF-CEM, greater than 100 µM; in the test with DU-145 it was greater than 100 µM; with HCT-116, 2.95 µM. The CC50 with HOP-62, in the test with HOP-92, with HS 578T, with KM12, with NCI-H522 and in the test with PC-3 was greater than 100 µM throughout. Further, the CC50 with SK-MEL-28, in the test on SN12C, with U251, in the test on UACC-62, with EKVX and in the test on SNB-75 was greater than 100 µM each time. Also, the CC50 in the test on OVCAR-3 is greater than 100 µM. Besides, in the test on MDA-N, the LC50 (50% lethal concentration) was greater than 100 µM. In addition, the LC50 (concentration killing 50% of cells) with NCI-H322M and in the test on NCI-H460 was greater than 100 µM throughout.

As to `O=Cc1ccc(-c2ccc(-c3ccc(C=O)[se]3)[se]2)[se]1`, the CC50 with A498 is 6.76 µM; with ACHN, greater than 100 µM; with BT-549 it was greater than 100 µM; in the test with CCRF-CEM it was greater than 100 µM; with DU-145 it was greater than 100 µM; with HCT-116 it was greater than 100 µM. The CC50 in the test with HOP-62 is greater than 100 µM; in the test on HOP-92 it was greater than 100 µM; in the test on HS 578T, greater than 100 µM; with KM12, greater than 100 µM; with NCI-H522 it was 95.5 µM; in the test on PC-3 it was greater than 100 µM. Also, the CC50 in the test with SK-MEL-28, in the test on SN12C, in the test with U251, in the test on UACC-62, with EKVX and in the test with SNB-75 was greater than 100 µM each time. Moreover, in the test with OVCAR-3, the CC50 is greater than 100 µM. Besides, the LC50 (50% lethal concentration) in the test with MDA-N was greater than 100 µM. The LC50 (concentration killing 50% of cells) with NCI-H322M and in the test with NCI-H460 was greater than 100 µM throughout.

On to `O=Cc1ccc(-c2ccc(-c3ccc[se]3)[se]2)[se]1`, for which the CC50 in the test on A498 was 6.31 µM; in the test with ACHN, 46.8 µM; with BT-549, 79.4 µM; in the test on CCRF-CEM it was greater than 100 µM; in the test with DU-145, 51.3 µM; in the test on HCT-116 it was 38.9 µM. Besides, the CC50 with HOP-62 is 74.1 µM; in the test on HOP-92, 63.1 µM; in the test with HS 578T, 53.7 µM; in the test with KM12 it was 45.7 µM; with NCI-H522, 42.7 µM; with PC-3, 87.1 µM. In addition, the CC50 in the test on SK-MEL-28 was 55 µM; in the test with SN12C, 50.1 µM; in the test with U251 it was 47.9 µM; in the test on UACC-62, 66.1 µM; in the test with EKVX, greater than 100 µM; in the test on SNB-75, greater than 100 µM. Further, in the test with OVCAR-3, the CC50 was 30.9 µM. Besides, in the test with MDA-N, the LC50 (50% lethal concentration) was 64.6 µM. Also, the LC50 (concentration killing 50% of cells) in the test with NCI-H322M is 60.3 µM; in the test on NCI-H460, 40.7 µM.

Regarding `O=Cc1ccc(-c2ccc(-c3cccs3)[se]2)s1`, the CC50 in the test on A498 was 0.933 µM; in the test on ACHN, greater than 100 µM; with BT-549, greater than 100 µM; with CCRF-CEM, greater than 100 µM; in the test on DU-145 it was greater than 100 µM; in the test with HCT-116, greater than 100 µM. In addition, the CC50 in the test on HOP-62, with HOP-92, in the test with HS 578T, in the test with KM12, in the test with NCI-H522 and in the test on PC-3 was greater than 100 µM in each case. In addition, the CC50 in the test with SK-MEL-28 was greater than 100 µM; in the test with SN12C it was greater than 100 µM; in the test with U251, greater than 100 µM; with UACC-62, 85.1 µM; in the test on EKVX, greater than 100 µM; in the test with SNB-75 it was greater than 100 µM. Further, the CC50 with OVCAR-3 was greater than 100 µM. The LC50 (50% lethal concentration) with MDA-N is greater than 100 µM. For the same compound, the LC50 (concentration killing 50% of cells) in the test with NCI-H322M and in the test with NCI-H460 was greater than 100 µM throughout. In addition, the IC (TGI) in the test on SNB-75 (SNB-75, read-out: Log10 TGI) was 57.5 µM.

With `O=Cc1ccc(-c2ccc(-c3ccc(C=O)s3)[se]2)s1`, the CC50 in the test on A498 was 4.07 µM; in the test on ACHN it was greater than 100 µM; in the test with BT-549 it was greater than 100 µM; in the test on CCRF-CEM it was greater than 100 µM; with DU-145 it was greater than 100 µM; in the test on HCT-116 it was greater than 100 µM. Also, the CC50 in the test on HOP-62, in the test on HOP-92, in the test with HS 578T, in the test with KM12, in the test with NCI-H522 and in the test with PC-3 was greater than 100 µM in each case. The CC50 was greater than 100 µM in the test with SK-MEL-28; greater than 100 µM in the test with SN12C; 89.1 µM with U251; greater than 100 µM in the test on UACC-62; greater than 100 µM in the test on EKVX; greater than 100 µM with SNB-75. Also, the CC50 with OVCAR-3 is 4.07 µM. Besides, in the test with MDA-N, the LC50 (50% lethal concentration) is greater than 100 µM. The LC50 (concentration killing 50% of cells) in the test with NCI-H322M and with NCI-H460 was greater than 100 µM throughout.
